Test results: patent EP4417602A1, “SUBSTITUTED PYRAZOLE CARBOXAMIDES, SALTS THEREOF AND THEIR USE AS HERBICIDALLY ACTIVE SUBSTANCES” (Bayer AG, priority 2023, dated 2024)

Columns and labels:
[1] = test system: ECHCG; experiment: B. Herbicidal post-emergence action on harmful plants (Tables B); type: in vivo, Echinochloa crus-galli
Outline: (§1)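 Activity was scored visually as % damage (100% = dead, 0% = like untreated) about 3 weeks after treatment. Plants at the one-leaf stage, 2-3 weeks old, were sprayed with WP/EC formulations plus 0.5% additive (600 L/ha water, up to 1280 g/ha). Plants were grown in sandy loam in a greenhouse.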

[2] = test system: ALOMY; experiment: A. Herbicidal pre-emergence action on harmful plants (Tables A); type: in vivo, Alopecurus myosuroides
Outline: (§2)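 Greenhouse pre-emergence test: compound applied to the soil surface at 1280 g/ha or below, and herbicidal effect rated visually at ca. 3 weeks on a 0–100% scale against untreated plants.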

[3] = test system: GLXMA; experiment: D. Pre-emergence effects on crop plants (Tables D); type: in vivo, Glycine max; conditions: crop plant
Outline: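 Pre-emergence soil-surface treatment at 320 g/ha or lower, using wettable-powder or emulsifiable-concentrate formulations in water plus 0.5% additive, over freshly sown seeds in covered sandy loam. Damage was rated visually as percent versus untreated pots (100% = dead plants) after about 3 weeks of greenhouse growth.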

[4] = test system: BRSNW; experiment: F. Post-emergence effects on crop plants (Tables F); type: in vivo, Brassica napus; conditions: crop plant
Outline: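 Plants were grown in sandy loam in a greenhouse and sprayed post-emergence at the single-leaf stage, 2–3 weeks after sowing. Visual damage was scored after ca. 3 weeks against untreated controls (0% = as control, 100% = dead).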

[5] = test system: ECHCG; experiment: C. Herbicidal pre-emergence action, weed and crop plants (Tables C); type: in vivo, Echinochloa crus-galli
From the text: (§3) Seeds of mono- and dicotyledonous weed plants and crop plants were sown, in plastic or organic planting pots, in sandy loam and covered with soil. The compounds according to the invention, formulated in the form of wettable powders (WP) or as emulsifiable concentrates (EC), were applied to the surface of the covering soil as aqueous suspension or emulsion, with the addition of 0.5% of an additive, at an application rate of 6001 of water/ha (converted). Following treatment, the pots were placed in a greenhouse and kept under optimum growth conditions for the test plants. The visual grading of the damage to the test plants was carried out after ca. 3 weeks in comparison to untreated controls (herbicidal effect in percent (%): 100% effect = plants have died off, 0% effect = as control plants). Tables C1 to C12 below show the effects of selected compounds of the general formula (I) according to table 1 on various harmful plants and an application rate corresponding to 320 g/ha or below obtained by the experimental procedure mentioned above. Table C1: pre-emergence activity at 320g/ha against KCHSC in %

[6] = test system: ALOMY; experiment: as above; type: in vivo, Alopecurus myosuroides
From the text: as §3

[7] = test system: POAAN; experiment: B. Herbicidal post-emergence action on harmful plants (Tables B); type: in vivo, Poa annua
Outline: as §1

[8] = test system: VERPE; experiment: C. Herbicidal pre-emergence action, weed and crop plants (Tables C); type: in vivo, Veronica persica; conditions: application rate 320 g/ha; Table C11
From the text: as §3

[9] = test system: VIOTR; experiment: as above; type: in vivo, Viola tricolor
Outline: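 Seeds were sown in sandy loam and covered with soil. WP or EC formulations were sprayed onto the soil surface as aqueous suspension or emulsion with 0.5% additive, at rates of 320 g/ha or below. Plants were kept in a greenhouse, and damage was scored visually after about 3 weeks as % effect versus untreated controls (100% = dead, 0% = like control).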

[10] = test system: AMARE; experiment: A. Herbicidal pre-emergence action on harmful plants (Tables A); type: in vivo, Amaranthus retroflexus
Outline: as §2

[11] = application rate 1280 g/ha, Table B2a
[12] = application rate 1280 g/ha, Table A9a
[13] = application rate 80 g/ha, Table D4b
[14] = application rate 80 g/ha, Table C6b
[15] = application rate 320 g/ha, Table C6a
[16] = application rate 320 g/ha, Table C2a
[17] = application rate 320 g/ha, Table A9b
[18] = application rate 1280 g/ha, Table B7a
[19] = application rate 320 g/ha, Table B2b
[20] = application rate 320 g/ha, Table B7b
[21] = application rate 80 g/ha, Table C12b
[22] = application rate 320 g/ha, Table C12a
[23] = application rate 80 g/ha, Table C2b
[24] = application rate 320 g/ha, Table A8b
[25] = application rate 1280 g/ha, visual grading after ca. 3 weeks vs untreated controls, 100% = plants have died off, 0% = as control plants
[26] = application rate 320 g/ha, Table D4a

| SMILES | pre-emergence activity against GLXMA [3, 13] | pre-emergence activity against GLXMA [3, 26] | post-emergence activity against ECHCG [1, 11] | pre-emergence activity against ALOMY [2, 12] | post-emergence activity against BRSNW in % ([4]; application rate 320 g/ha) | pre-emergence activity against ECHCG [5, 14] | pre-emergence activity against ECHCG [5, 15] | pre-emergence activity against ALOMY [6, 16] | pre-emergence activity against ALOMY [2, 17] | post-emergence activity against POAAN [7, 18] | post-emergence activity against ECHCG [1, 19] | pre-emergence activity against VERPE [8] | post-emergence activity against POAAN ([7]; application rate 80 g/ha, Table B7c) | post-emergence activity against POAAN [7, 20] | pre-emergence activity against VIOTR [9, 21] | pre-emergence activity against VIOTR [9, 22] | pre-emergence activity against ALOMY [6, 23] | pre-emergence activity against AMARE [10, 24] | pre-emergence activity against AMARE [10, 25] | post-emergence activity against BRSNW in % ([4]; application rate 80 g/ha) |
| --- | --- | --- | --- | --- | --- | --- | --- | --- | --- | --- | --- | --- | --- | --- | --- | --- | --- | --- | --- | --- |
| Cn1cc(C(=O)N2CCCC2Cc2ccccc2F)c(COc2ccccc2)n1 (racemic) [Example I-006] | – | – | 100% | 100% | 10% | – | – | 90% | 90% | 90% | – | – | – | – | – | – | – | – | – | – |
| COCc1nn(C)cc1C(=O)N1CCCC1Cc1ccccc1F (single isomer, unassigned) [Example I-003] | – | – | 90% | 100% | 0% | 90% | 90% | 100% | 100% | 90% | 90% | 80% | 90% | 90% | 80% | 90% | 90% | 90% | 90% | – |
| COCc1nn(C)cc1C(=O)N1CCCC1Cc1ccccc1F (racemic) [Example I-002] | – | – | 90% | – | – | – | 90% | 90% | – | 90% | – | – | – | – | – | 80% | – | – | – | 10% |
| CNC(=O)n1cc(C(=O)N2CCCC2Cc2ccccc2F)c(COC)n1 (racemic) [Example I-051] | 0% | – | 90% | 90% | 20% | 100% | 100% | 90% | 90% | 90% | – | – | – | – | 80% | 80% | 80% | – | – | – |
| COCc1c(C(=O)N2CCCC2Cc2ccccc2F)cnn1C (single isomer, unassigned) [Example I-157] | – | 0% | – | 100% | 0% | – | 80% | 90% | 100% | 100% | – | 80% | – | 100% | – | 90% | – | 90% | 90% | – |

Second part, led by results:

| pre-emergence activity against GLXMA [3, 13] | pre-emergence activity against GLXMA [3, 26] | SMILES | post-emergence activity against ECHCG [1, 11] | pre-emergence activity against ALOMY [2, 12] | post-emergence activity against BRSNW in % ([4]; application rate 320 g/ha) | pre-emergence activity against ECHCG [5, 14] | pre-emergence activity against ECHCG [5, 15] | pre-emergence activity against ALOMY [6, 16] | pre-emergence activity against ALOMY [2, 17] | post-emergence activity against POAAN [7, 18] | post-emergence activity against ECHCG [1, 19] | pre-emergence activity against VERPE [8] | post-emergence activity against POAAN ([7]; application rate 80 g/ha, Table B7c) | post-emergence activity against POAAN [7, 20] | pre-emergence activity against VIOTR [9, 21] | pre-emergence activity against VIOTR [9, 22] | pre-emergence activity against ALOMY [6, 23] | pre-emergence activity against AMARE [10, 24] | pre-emergence activity against AMARE [10, 25] | post-emergence activity against BRSNW in % ([4]; application rate 80 g/ha) |
| --- | --- | --- | --- | --- | --- | --- | --- | --- | --- | --- | --- | --- | --- | --- | --- | --- | --- | --- | --- | --- |
| 0% | – | COCc1nn(C(=O)OC(C)(C)C)cc1C(=O)N1CCCC1Cc1ccccc1F (racemic) [Example I-040] | 90% | 90% | 0% | 80% | 90% | 80% | – | – | – | – | – | – | – | – | – | – | – | – |
| 0% | 0% | C=C(c1ccccc1F)C1CCCN1C(=O)c1cn(C)nc1COC (racemic) [Example I-023] | 90% | 90% | 0% | – | 90% | 100% | – | 90% | – | – | – | – | 80% | 80% | – | – | 90% | – |
| 0% | 10% | COCc1nn(C)cc1C(=O)N1CCCC1C(O)c1ccccc1F (single isomer, unassigned) [Example I-053] | 90% | – | 20% | 90% | 100% | 90% | – | – | – | 80% | – | – | – | – | 80% | – | – | – |
| 20% | – | Cn1cc(C(=O)N2CCCC2Cc2ccc(F)cc2F)c(COc2ccccc2)n1 (racemic) [Example I-008] | – | 100% | 10% | – | 90% | 100% | 100% | 90% | – | – | – | – | – | 90% | – | – | – | – |
| – | 0% | COCc1c(C(=O)N2CCCC2Cc2ccccc2Cl)cnn1C (racemic) [Example I-170] | 90% | 90% | 0% | 90% | 90% | 90% | – | 90% | 90% | 80% | – | 90% | – | – | 90% | – | – | – |
| 0% | 0% | COCc1nn2c(c1C(=O)N1CCCC1Cc1ccccc1F)CCC2 (racemic) [Example I-022] | – | 90% | 0% | – | 90% | – | 90% | 90% | – | – | – | – | – | 80% | – | – | – | – |
